Reference: patent US20030069200A1, “Use of glucosylceramide synthesis inhibitors in brain cancertherapy” (priority 2000, published 2003)

Assays:
EPEN tumour = test: Subcutaneous EPEN tumour growth in C57BL/6 mice; format: in vivo, mouse; details: NB-DNJ 2400 mg/kg body wt/day in diet, ten days
Protocol: (§1) CT-2A and EPEN tumours were grown subcutaneously in the flanks of six-week old syngeneic C57BL/6 mice. The treated mice were maintained on a powdered mouse chow diet (Prolab, Agway) that contained NB-DNJ (2400 mg/kg body weight/day). The control mice received only the powdered mouse chow. Tumours were enzymatically dissociated as described in Ecsedy et al, J. Lipid Res., 39: 2218-2227, 1998 and approximately 5×10^6 cells from each tumour were inoculated subcutaneously into the flanks of the host mice. For the CT-2A-bearing mice, drug treatment was started six days post-tumour cell inoculation and was continued for a total of nine days. For the EPEN-bearing mice, drug treatment was started eleven days post-tumour inoculation and was continued for a total of ten days. This was done because the EPEN tumour grows more slowly than the CT-2A tumour (Cotterchio et al. 1993. Mol. Chem. Neuropathol. 20:163-172). The method of Looney was used to determine tumour growth rates (volume increase/day) as previously described (Cotterchio et al. 1993. Mol. Chem. Neuropathol. 20:163-172). The results are shown in FIGS. 3A and 3B where values are expressed as means±SEM except for the control EPEN, which is the mean of two independent samples.

CT-2A tumour [1] = test: Subcutaneous CT-2A tumour growth in C57BL/6 mice; format: in vivo, mouse; details: NB-DNJ 2400 mg/kg body wt/day in diet, nine days
Protocol: as §1

CT-2A tumour [2] = test: Ganglioside neuraminic acid content of the CT-2A mouse brain tumour (Table 1); format: in vivo; details: treated mice, mean of N=2
Protocol: (§2) CT-2A tumour tissue was minced and tissue pieces (about 1 mm^3) were implanted into the cerebral cortex of C57BL/6J mice using a trocar as described previously (Seyfried et al. 1987. Cancer Res. 47:3538-3542). The NB-DNJ diet as in Example 2. Control mice received only the powdered mouse chow. Tumours were excised from surrounding brain tissue, frozen, and lyophilized to remove water. Gangliosides were isolated and purified and content expressed as μg sialic acid/100 mg dry weight, as determined using the resorcinol reagent, as previously described (Seyfried et al. 1978. J. Neurochem. 31:21-27).
In addition, NB-DNJ reduced ganglioside content in the CT-2A mouse brain tumour grown subcutaneously (See FIG. 4B and Table 1 below).

CT-2A cells = test: Growth of cultured CT-2A brain tumour cells (Coulter counter cell counts); format: cell-based; details: NB-DNJ 200 μM
Protocol: (§3) Approximately 0.5×10^4 cells for CT-2A and 1×10^4 cells for EPEN were seeded in wells of a 24 well plate and cultured for 24 hours in DMEM supplemented with 10% FBS. The exact cellular origin of the CT-2A and EPEN tumours is not known, but Dr. Allan Yates, Chief of Neuropathology at Ohio State University classified the tumours as poorly differentiated anaplastic astrocytomas (see Seyfried et al Mol. Chem. Neuropathol. 17: 147-167, 1992).
(§4) Cells were cultured for a further 7 days in the same medium for control cells or in the presence of NB-DNJ (200 μM) for treated cells. Cells were counted on days 2, 4, 6 and 8 using a Coulter counter and the results are shown in FIGS. 2A and 2B where values are expressed as means±SEM (N=3).

EPEN cells = test: Growth of cultured EPEN brain tumour cells (Coulter counter cell counts); format: cell-based; details: NB-DNJ 200 μM
Protocol: as §3, §4

CT-2A tumour [3] = test: Intra-cranial CT-2A tumour growth and ganglioside content in C57BL/6J mice; format: in vivo, mouse
Protocol: as §2

neuroblastoma cells = details: in vitro, cited from earlier work
[4] = intra-cranial CT-2A tumours, NB-DNJ diet

SMILES | reduction of tumour growth rate compared to untreated controls (EPEN tumour) [%] | reduction of tumour growth rate compared to untreated controls (CT-2A tumour [1]) [%] | Ganglioside Neuraminic Acid Content, NeuAc (CT-2A tumour [2]) [μg/100 mg dry wt] | Ganglioside Neuraminic Acid Content, NeuGc (CT-2A tumour [2]) [μg/100 mg dry wt] | Ganglioside Neuraminic Acid Content, Total (CT-2A tumour [2]) [μg/100 mg dry wt] | percentage of dead cells vs control (trypan blue exclusion) (CT-2A cells; CT-2A culture) | growth inhibition of cultured CT-2A tumour cells (CT-2A cells; after 8 days) | percentage of dead cells vs control (trypan blue exclusion) (EPEN cells; EPEN culture) | growth inhibition of cultured EPEN tumour cells (EPEN cells; after 8 days) | intra-cranial growth of the CT-2A tumour (CT-2A tumour [3]; NB-DNJ dietary treatment) | blood brain barrier penetration (CT-2A tumour [3]; inferred from the effect on intra-cranial tumours, dietary treatment) | reduction in ganglioside concentration (CT-2A tumour [3]; [4]) [%] | reduction in tumour dry weight (CT-2A tumour [3]; [4]) [%] | ganglioside shedding by neuroblastoma tumours (neuroblastoma cells; Li et al 1996) | neurite outgrowth by neuroblastoma cells (neuroblastoma cells; Uemura et al 1990)
CCCCN1C[C@H](O)[C@@H](O)[C@H](O)[C@H]1CO [NB-DNJ, N-butyldeoxynojirimycin] | 76 | 68 | 21.8 | 5.6 | 27.1 | did not differ significantly | about 50% | did not differ significantly | about 50% | significantly reduced | can penetrate the blood brain barrier | 53 | 55 | – | –
CCCCCCCCCC(=O)N[C@H](CN1CCOCC1)[C@H](O)c1ccccc1 [D-PDMP, D-threo-1-phenyl-2-decanoylamino-3-morpholino-1-propanol] | – | – | – | – | – | – | – | – | – | – | – | – | – | reduces ganglioside shedding | inhibit neurite outgrowth
